Data on five molecules can be found in publication PMC10470313, “Developing a peptide to disrupt cohesin head domain interactions” (iScience, 2023).

Several values for one entry are separate records, joined by “and”; a condition that tells them apart may be missing. Identical values can stand only once. Entries after “also recorded” stand apart in the source; their conditions may differ.

Test [1] relates to yIO-001 strain yeast cells. Description: Peptide entry into yeast cells (epifluorescence microscopy). The following applies: 10 mM peptide, 1 h, 30°C, mid-log phase, FITC epifluorescence. Type of test: cell-based. How it is done: The formation of Smc3/CIP3 complexes supports our preliminary conclusion that CIP3 inhibits cohesin activity in cells. Aiming to improve the stability of the peptide in cells, we switched to using an in vitro synthesized peptide. This approach has been successfully used to inhibit protein-protein interactions in both yeast and mammalian cells.[26]^,[38]^,[39]^,[40]^,[41] […] We validated peptide entry into yeast by incubating a 26-amino acid control peptide (ContP), which was fused to the TAT, and a fluorescein isothiocyanate (FITC) fluorophore. Thereafter, 10 mM of the ContP was added to yIO-001 strain cells grown to mid-log phase at 30°C. The cells were incubated with the peptide for 1 h and analyzed by epifluorescence microscopy.
Supplementary Figure S3. Binding of CIP3-TAT to cohesin by microscale thermophoresis, Related to Figure 3. 10 µM CIP3-TAT was added to protein extracts from strain yAM-945 (Smc3-GFP). The formation of the CIP3-TAT and cohesin complex was analyzed by MST in binding mode. A. MST trace. B. Binding analysis.
Supplementary Figure S4. […]
3. […] The purified proteins were analyzed on gel, followed by coomassie staining. […]
Supplementary Figure S5. […] The entry of the peptide into the cells was analyzed by epifluorescence microscopy.
Supplementary Figure S6. […] The cell cycle stage of the cells, described in Fig. 4B, was determined by flow cytometry. […]

The test system of test [2] is yeast cells (pGAL-CIP strains). Put plainly: Yeast growth rate with galactose-induced peptide expression (OD600). Type of test: cell-based, Saccharomyces cerevisiae. The following applies: OD 600 nm every 120 min; for growth of cells overexpressing the peptide: SC-URA galactose medium, compared with control plasmid; for growth rate vs control, multiple linear regression coefficient B: logarithmic phase, galactose medium, representative experiment, vs control strain yIO1000. The source says: We designed three cohesin-inhibiting peptides (CIPs, Table 1) to inhibit Smc1/Smc3 protein-protein interaction. CIP1 and CIP2 were derived from conserved regions in Smc3, while CIP3 was derived from a conserved region in Smc1 (Figure 1E). To explore the biological effect of the peptides on cohesin, we sought to overexpress them in cells. For that purpose, we constructed a centromeric plasmid—pME4 (CIP1), pME2 (CIP2), and pME3 (CIP3), in which the peptide coding sequence was inserted after an ATG codon and under the control of a GAL promoter. Cells were transformed with the plasmids and grown in an SC-URA medium. In addition, we transformed cells with a control plasmid (pIO014).
(§1) Strains yIO1000 (control) and yME-031 (pGAL-CIP1), yME-016 (pGAL-CIP2), and yME-019 (pGAL-CIP3) cells were diluted in SC-URA galactose medium, and their growth rate was measured by optical density at 600 nm every 120 min. Cohesin is essential for cell division, so we expected that inhibition of cohesin activity by expressing a CIP would affect the cell growth rate.
Figure 2 CIP3 causes cell growth delay Strains yIO1000 (control) and yME-031 (pGAL-CIP1), yME-016 (pGAL-CIP2), and yME-019 (pGAL-CIP3) cells were grown in a galactose-containing medium to induce peptide expression. Cell growth was monitored every 120 min to measure the optical density of the culture at 600 nm. The growth rate in the logarithmic growth phase was calculated. The results of a representative experiment are shown.

The subject of the next test is cohesin in yeast cells. Description: Preliminary analysis of biological effect. Type of test: cell-based. How it is done:
as §1
The CIP3 sequence is derived from the C-terminal region of Smc1. The 15 amino acid sequence is conserved, encoding part of a short loop and the beginning of an alpha helix located at the bottom of the head domain (Figures 1A–1C). […] We used the HPepDock 2.0 server[32]^,[33]^,[34]^,[35] to predict the docking site of CIP3 on Smc3. The coordinates of the Smc3 structure (PDB: 4ux3)[36] were entered as the receptor input and CIP3 as the sequence as the peptide input and the analysis was done using the default parameter. […] CIP3 may interfere with ATP binding to the Walker A site in Smc3. Alternatively, it may misplace the hydrolysis motif in Smc1 and inhibit that ATPase activity. It is important to note that dynamics models are required to understand the structural basis of the Smc3-CIP3 complex fully, as well as experimental validation of the model.

In another test the test system is yeast cells. Put plainly: Yeast growth with CIP3 expressed from T2A ribosome-skipping vector. The following applies: CIP3 followed by GFP in T2A vector, GAL promoter. Type of test: cell-based, Saccharomyces cerevisiae. The source says:
The weak effect of CIP3 expressed in cells may relate to several reasons, including low expression levels, low translation efficiency, or cellular instability of short mRNAs and peptides. We tried to increase cellular mRNA stability by using a plasmid containing the T2A ribosome-skipping sequence under GAL promoter control.[29]^,[30]^,[31] Two genes cloned in tandem and separated by a T2A linker were expressed as a single mRNA. The ribosome skips the T2A sequence during translation, resulting in two separate proteins (Figure S1A. Peptide expression from a plasmid containing T2A ribosome-skipping sequence, related to Figure 2). To test the system, we cloned green fluorescent protein (GFP) and mCherry in tandem, separated by the T2A sequence. Cells carrying the plasmids were grown in SC-URA with either noninducing raffinose or inducing galactose. […] Both GFP and mCherry proteins were detected by western blot analysis of extracts from these cells (Figure S1C. Peptide expression from a plasmid containing T2A ribosome-skipping sequence, related to Figure 2). […]

Another test has as its system cohesin holocomplex. Put plainly: ATPase assay of cohesin holocomplex (free Pi). Type of test: biochemical, S. cerevisiae. As to conditions: 10 nM cohesin, 20 nM loader, dsDNA, 0.25 mM ATP, 20 mM TAT-CIP3 as printed, 30°C, absorbance 650 nm. How it is done: The formation of the Smc3-CIP3 complex likely affects the ATPase activity. To explore this possibility, we expressed and purified S. cerevisiae cohesin holocomplex and the loader from yeast cells[37] (Figure S4. Purification of cohesin holocomplex and loader, related to Figure 3), and we measured the ATPase rate of cohesin in the presence of cohesin, the loader DNA, and ATP, as previously described.[37] Cohesin was preincubated without or with CIP3, and the accumulation of free Pi was measured over 30 min. In the absence of CIP3, Pi accumulation was constant over time, indicating continuous ATP hydrolysis.
Cohesin and the Scc2-Scc4 loader were expressed in S. cerevisiae as described in[37] with the following modifications: Cells were resuspended in buffer A (50 mM Hepes-NaOH pH 7.5, 300 mM NaCl, 2 mM MgCl2, 20% (vol/vol) glycerol, 0.5 mM Tris(2-carboxyethyl)phosphine hydrochloride (TCEP), 0.5 mM Pefabloc (Sigma-Aldrich), and a protease inhibitor cocktail (Sigma-Aldrich) and lysed by seven continuous passes in EmulsiFlexby-C3 (Avastin) at 4°C. The lysate was clarified, and purifications were continuous, as described in.[37]
ATPase assay has been done with the piColorLock kit (Expedeon) according to the manufacturer manual. […] The reaction was incubated at 30°C for 20 minutes and the amount of free was measured for 30 min minutes by absorbance in 650 nm every 5 min […].

Test [3] addresses T1, CIP3-TAT (S. cerevisiae | HIV).
T1 construct: Smc1, S. cerevisiae, residues 1121-1135 (conserved region of the head domain); linker between the Smc1 stretch and the TAT stretch; 11-amino acid peptide from the HIV TAT protein, added for delivery into cells; The methods of the biosensing experiment call the immobilised peptide CIP3; also called TAT-CIP3; source: synthetic peptide (Fmoc solid-phase synthesis, purified by preparative RP-HPLC)
T1 peptide: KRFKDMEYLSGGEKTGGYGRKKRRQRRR
Put plainly: field-effect biosensing (FEB Agile R100); 500 nM peptide immobilised on a graphene sensor chip; purified Smc3 head domain as analyte, incubated with ATP (10 mM) before the measurement. The following applies: both partners purified.

For test [4], the target named is T1, CIP3-TAT. Description: field-effect biosensing (FEB Agile R100); 500 nM peptide immobilised on a graphene sensor chip; purified Smc3 head domain as analyte in rising concentrations; PBS baseline; without ATP; Kd by Hill fit or from kon and koff at a single concentration. The following applies: both partners purified.

What is called Kd is a measure of binding affinity in units of concentration.

Regarding “FITC-SGYGRKKRRQRRR-GGGLNPYWMETFT [ContP, 26-amino acid control peptide fused to the TAT and a fluorescein isothiocyanate (FITC) fluorophore]”, the “peptide entry into yeast cells” value in test [1] is given as “emission from cells incubated with the ContP peptide”.
In the case of “MIIGSNGSGKSN [CIP2, expressed from pME2]”, in test [2], the “growth of cells overexpressing the peptide” value is “no significant decrease in growth rate” and the “growth rate vs control, multiple linear regression coefficient B” value (“growth rate vs control” for short) is listed as −0.290. In addition, the “biological effect, preliminary analysis” value with cohesin in yeast cells is “do not have a detectable biological effect”.
“MKRFKDMEYLSGGEKT [CIP3, expressed from pME3]”: in test [2], the “growth of cells overexpressing the peptide” value is given as “weak growth delay; also recorded: significant decrease in growth rate” and the “growth rate vs control” value was −0.727. Moreover, the “growth inhibition compared to previous (non-T2A) experiment” value with yeast cells is reported as “the inhibition fold was not improved”. Further, the “Pi accumulation (ATPase activity) after 5 min” value with cohesin holocomplex was “Pi accumulation dropped sharply, indicating that ATPase activity was inhibited”.
Turning to “MKQNEQLHVEQLSGGQKTV [CIP1, expressed from pME4]”, in test [2], the “growth of cells overexpressing the peptide” value is “no significant decrease in growth rate” and the “growth rate vs control” value stood at 0.015. Further, the “biological effect, preliminary analysis” value in the test on cohesin in yeast cells is “do not have a detectable biological effect”.

B1: Smc3 head domain (domain or fragment, S. cerevisiae)
chain: YIKRVIIKGFKTYRNETIIDNFSPHQNVIIGSNGSGKSNFFAAIRFVLSDDYSNLKREERQGLIHQGSGGSVMSASVEIVFHDPDHSMILPSGVLSRGDDEVTIRRTVGLKKDDYQLNDRNVTKGDIVRMLETAGFSMNNPYNIVPQGKIVALTNAKDKERLQLLEDVVGAKSFEVKLKASLKKMEETEQKKIQINKEMGELNESSKHPTSLVPRGNFKKFNERRKDLAERASELDESKDSIQDLIVKLKQQKVNAVDSTFQKVSENFEAVFERLVPRGTAKLIIHRKNDNANDHDESIDVDMDAESNESQNGKDSEIMYTGVSISVSFNSKQNEQLHVEQLSGGQKTVCAIALILAIQMVDPASFYLFDEIDAALDKQYRTAVATLLKELSKNAQFICTTFRTDMLQVADKFFRVKYENKISTVIEVNREEAIGFIRGSNKFAEV
notes: Smc3, S. cerevisiae, N-terminal part of the head domain, amino acids 2-204; 13 amino acids linker in place of the coiled coil and hinge; Smc3, S. cerevisiae, C-terminal part of the head domain, amino acids 1001-1230; also called Smc3hd; source: E. coli BL21, purified (Ni-NTA, twice)
With B1, the dissociation constant (Kd) was 544.2 ± 0.06 nM with CIP3-TAT [3]; 53.9 nM and 56 nM in the test with CIP3-TAT [4].
